From patent US8304422B2, “Compositions and methods for inhibition of the JAK pathway” (Rigel Pharmaceuticals, Inc., priority 2007, dated 2012) come the findings set out here.

The subject of test [1] is Ramos B-Cell Line Stimulated with IL-4. Nature of the test: Assay for Ramos B-Cell Line Stimulated with IL-4 (CD23 upregulation, FACS; Example 2). The note with it: human Ramos B cells, IL-4 50 units/mL for 20-24 hours, anti-CD23-PE. The test is classed as cell-based. Summed up:
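Human Ramos B cells (5×10^4 per point, RPMI with 5% serum) preincubated 1 hour at 37° C with compound or DMSO, then stimulated with IL-4 at 50 units/mL final for 20-24 hours. CD23 upregulation measured by anti-CD23-PE staining and flow cytometry.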

The test system of the next test is BaF3 V617F cells; UKE-1. The experiment in a line: Proliferation Assay (Cell Titer-Glo; Example 7). The test is classed as cell-based. The conditions noted are these: proliferation 72 hours, inhibit JAK2 activity, cell line (BaF3 V617F or UKE-1) not stated. Summed up: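 BaF3 V617F cells (RPMI, 10% FBS) and UKE-1 cells (Iscove's DMEM, 10% FBS, 10% equine serum, 1 uM hydrocortisone) were exposed to 3-fold serially diluted compound in duplicate for 72 hours at 37 °C. Viable cell number quantified by Cell Titer-Glo luminescence; IC50 reported.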
(ATP-based viability assays read luminescence as a measure of living cells.)

Consider `Cc1cc(C)cc(Nc2ncc(Cl)c(Nc3ccc(CNS(=O)(=O)C4CC4)cc3)n2)c1` [II-36, 5-chloro-N4-(4-cyclopropylsulfonylaminomethyl)phenyl-N2-(3,5-dimethyl)phenyl-2,4-pyrimidinediamine], for which the IC50 – broadly, the midpoint of a concentration-inhibition curve – in test [1] worked out at 38.1 nM; in the test with BaF3 V617F cells; UKE-1, 599 nM.
